Laboratory results from PubChem BioAssay AID2060614 (Molecular Pharmacology Branch, DTP, NCI, 2025).

Test system: 598228-144-R-J1-PDC complex spheroids, viability
Assay: Anticancer human tumor 598228-144-R-J1-PDC patient-derived serous endometrial adenocarcinoma cell line growth inhibition [CLK]
Conditions: for IC50: curve of first compound; for viability, T/C: stronger effect = lower value; active = viability on the fitted dose curve at most 10% of control; inactive = the rest
From the text: A high-throughput screen of multi-cell type tumor spheroids was designed to identify active combinations of […] and targeted small molecules. Complex spheroids include a stromal component modeled by human endothelial cells (HUVEC) and fibroblasts modeled by human mesenchymal stem cells (MSCs). The concentration ranges selected for each drug and investigational agent were based upon clinically achievable concentrations if the clinical Cmax of the agent was known.
Compounds. The drugs and investigational agents: cirtuvivint (SM08502; NSC835563), CC-671 (NSC850746), vemurafenib (NSC761431), tapotoclax (NSC804041), sotorasib (NSC818433), adagrasib (NSC831453), MRTX-1133 (NSC836407), BAY2416964 (NSC825713), copanlisib (NSC816437), inavolisib (NSC800729), abemaciclib (NSC768073), osimertinib (NSC779217), entinostat (NSC756642), eltanexor (KPT-8602, NSC794443), venetoclax (NSC766270), ceralasertib (NSC777638), bortezomib (NSC756655), olaparib (NSC753686), talazoparib (NSC767125), alisertib (NSC759677), peposertib (NSC802822), gemcitabine (NSC613327), 5-fluorouracil (NSC19893), SN-38 (NSC673596), oxaliplatin (NSC266046), paclitaxel (NSC125973), and doxorubicin (NSC123127), were obtained from the National Cancer Institute (NCI) Developmental Therapeutics Program Chemical Repository. The FDA-approved anticancer drug set is available from the Developmental Therapeutics Program at https://dtp.cancer.gov/organization/dscb/obtaining/available plates.htm. […] The stock solutions were prepared in dimethyl sulfoxide (DMSO, Sigma-Aldrich, St. Louis, MO, cat. D2650), except for the platinum complexes which were prepared in saline (Quality Biological, Gaithersburg, MD, cat. 114-055-101), at 800-fold the tested concentration and stored at -70 degrees C prior to their use. All drugs and investigational agents were tested over a range starting from a high concentration at or near the clinical Cmax and decreasing in half-log increments. If the clinical Cmax for an agent had not been determined, the highest concentration tested was 10 microM.
Cell Culture. All cells were maintained in an incubator at 37 degrees C and 5% CO2 with 95% humidity. The PDC lines were cultured according to standard operating procedures established by the NCI PDMR. Briefly, all PDCs were thawed and cultured in Matrigel-coated flasks prepared with a working solution of 1X Ham's F-12 nutrient mix, without supplementation (Invitrogen, Waltham, MA, cat. 11765054), 100 U/mL penicillin-streptomycin (Invitrogen, cat. 15140122), and 2.5% Matrigel (Corning Inc., Corning, NY, cat. 354248) for the first three passages. The 947758-054-R-J2-PDC line was cultured in 6B/Colon 1A media, which includes advanced DMEM/F-12 (Thermo Fisher Scientific, cat. 12634028), 10 mM HEPES (Thermo Fisher Scientific, cat. 15630080), 1X GlutaMAX supplement (Thermo Fisher Scientific, cat. 35050061), 0.1 mg/mL primocin (InvivoGen, cat. ant-pm-2), 10% defined fetal bovine serum, heat inactivated (HyClone Laboratories Inc., cat. SH30070.03HI), 1.25 mM N-Acetyl-L-cysteine (Sigma-Aldrich, cat. A9165), 10 mM nicotinamide (Sigma-Aldrich, cat. N0636), 1X B-27 supplement (Thermo Fisher Scientific, cat. 17504044), 1X N-2 supplement (Thermo Fisher Scientific, cat. 17502048), and 10 microM Y-27632 dihydrochloride (Tocris Bioscience, cat. 1254). The 876862-298-R-J1-PDC was cultured in 6E media, which includes all 6B/Colon 1A media components plus 50% L-WRN conditioned media (ATCC, cat. CRL-3276), 50 ng/mL recombinant human EGF recombinant protein (hEGF; Thermo Fisher Scientific, cat. PHG0311), 10 ng/mL recombinant human fibroblast growth factor 10 (hGFG-10; PeproTech, cat. 100-26), 1 ng/mL recombinant human fibroblast growth factor 2 (hFGF-2; PeproTech, cat. 100-18B), and 1 µM prostaglandin E2 (PGE2; Tocris, cat. 2296). The 227483-062-R1-J1-PDC line was cultured in Panc media, containing all 6E components except hFGF-2, with the addition of 500 nM SB-431542 (Selleckchem, cat. S1067) and 10 nM gastrin (Tocris, cat. 3006). […]

[1] = second compound 0.0316 µM, first compound 0.0316 µM
[2] = second compound 0.0316 µM, first compound 0.1 µM
[3] = second compound 0.0316 µM, first compound 0.316 µM
[4] = second compound 0.0316 µM, first compound 1 µM
[5] = second compound 0.0316 µM, first compound 3.16 µM
[6] = second compound 0.0316 µM, first compound 10 µM
[7] = second compound 0.1 µM, first compound 0.0316 µM
[8] = second compound 0.1 µM, first compound 0.1 µM
[9] = second compound 0.1 µM, first compound 0.316 µM
[10] = second compound 0.1 µM, first compound 1 µM
[11] = second compound 0.1 µM, first compound 3.16 µM
[12] = second compound 0.1 µM, first compound 10 µM
[13] = second compound 0.316 µM, first compound 0.0316 µM
[14] = second compound 0.316 µM, first compound 0.1 µM
[15] = second compound 0.316 µM, first compound 0.316 µM
[16] = second compound 0.316 µM, first compound 1 µM
[17] = second compound 0.316 µM, first compound 3.16 µM
[18] = second compound 0.316 µM, first compound 10 µM
[19] = second compound 1 µM, first compound 0.0316 µM
[20] = second compound 1 µM, first compound 0.1 µM
[21] = second compound 1 µM, first compound 0.316 µM
[22] = second compound 1 µM, first compound 1 µM
[23] = second compound 1 µM, first compound 3.16 µM
[24] = second compound 1 µM, first compound 10 µM
[25] = second compound 3.16 µM, first compound 0.0316 µM
[26] = second compound 3.16 µM, first compound 0.1 µM
[27] = second compound 3.16 µM, first compound 0.316 µM
[28] = second compound 3.16 µM, first compound 1 µM
[29] = second compound 3.16 µM, first compound 3.16 µM
[30] = second compound 3.16 µM, first compound 10 µM
[31] = second compound 10 µM, first compound 0.0316 µM
[32] = second compound 10 µM, first compound 0.1 µM
[33] = second compound 10 µM, first compound 0.316 µM
[34] = second compound 10 µM, first compound 1 µM
[35] = second compound 10 µM, first compound 3.16 µM
[36] = second compound 10 µM, first compound 10 µM
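Also: spheroids exposed to compounds for seven days before readout.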
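For viability, T/C in this document: 100% = DMSO vehicle control wells.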

O=c1[nH]cc(F)c(=O)[nH]1 + CN1CCN(c2cc(C(=O)Nc3cc4cc(-c5cnn(C)c5)ccc4cn3)ccn2)CC1
inactive: viability, T/C [1] 128% | viability, T/C [2] 120% | viability, T/C [3] 132% | viability, T/C [4] 125% | viability, T/C [5] 125% | viability, T/C [6] 96.5% | viability, T/C [7] 149% | viability, T/C [8] 119% | viability, T/C [9] 123% | viability, T/C [10] 139% | viability, T/C [11] 113% | viability, T/C [12] 96% | viability, T/C [13] 20.4% | viability, T/C [14] 25% | viability, T/C [15] 18.3% | viability, T/C [16] 18% | viability, T/C [17] 18.1% | viability, T/C [18] 21.4%
< 31.6 nM: IC50 (second compound 0.316 µM) | IC50 (second compound 1 µM) | IC50 (second compound 3.16 µM) | IC50 (second compound 10 µM)
active: viability, T/C [19] 1.7% | viability, T/C [20] 1.4% | viability, T/C [21] 1.3% | viability, T/C [22] 1.91% | viability, T/C [23] 4.01% | viability, T/C [24] 5.93% | viability, T/C [25] 1.76% | viability, T/C [26] 3.81% | viability, T/C [27] 1.88% | viability, T/C [28] 2.14% | viability, T/C [29] 1.46% | viability, T/C [30] 5.59% | viability, T/C [31] 0.99% | viability, T/C [32] 0.93% | viability, T/C [33] 0.6% | viability, T/C [34] 1.01% | viability, T/C [35] 5.93% | viability, T/C [36] 4.87%
> 10000 nM: IC50 (second compound 0.0316 µM) | IC50 (second compound 0.1 µM)

Nc1ccn(C2OC(CO)C(O)C2(F)F)c(=O)n1 (centres undefined) + CNC(=O)c1ccc(Nc2nc(OC3CCCC3)c3c(-c4ccc5nc(C)oc5c4)c[nH]c3n2)c(OC)c1
< 31.6 nM: IC50 (second compound 0.0316 µM) | IC50 (second compound 0.1 µM)
54.3 nM: IC50 (second compound 0.316 µM)
inactive: viability, T/C [1] 50.8% | viability, T/C [2] 36.9% | viability, T/C [3] 27.4% | viability, T/C [4] 34.7% | viability, T/C [5] 39% | viability, T/C [6] 34.4% | viability, T/C [7] 57.3% | viability, T/C [8] 33.6% | viability, T/C [9] 26.9% | viability, T/C [10] 36.3% | viability, T/C [11] 36.4% | viability, T/C [12] 34.7% | viability, T/C [13] 63.4% | viability, T/C [14] 34.5% | viability, T/C [15] 32.2% | viability, T/C [16] 29.6% | viability, T/C [17] 39.5% | viability, T/C [18] 37% | viability, T/C [19] 65.3% | viability, T/C [20] 32.6% | viability, T/C [21] 23.9% | viability, T/C [22] 29% | viability, T/C [23] 36.4% | viability, T/C [24] 28.7% | viability, T/C [25] 63% | viability, T/C [26] 24.2% | viability, T/C [27] 26.2% | viability, T/C [28] 24.3% | viability, T/C [29] 34.3% | viability, T/C [30] 33.6% | viability, T/C [31] 60.2% | viability, T/C [32] 26.9% | viability, T/C [33] 21.4% | viability, T/C [34] 22.6% | viability, T/C [35] 26.5% | viability, T/C [36] 31.5%
48.9 nM: IC50 (second compound 3.16 µM)
53.7 nM: IC50 (second compound 1 µM)
44.9 nM: IC50 (second compound 10 µM)
